Experimental data taken from US20250195521A1 (Revolution Medicines, Inc., priority 2020, published 2025).

Experiments:
AsPC-1 (K-Ras G12D) = test: Potency assay: pERK; assay type: cell-based, human; details: Homo sapiens, ASPC1; AsPC-1 KRAS G12D; read-out: pERK EC50
Outline: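 pERK decrease measured after 4 h compound treatment at 37 °C (10 three-fold dilutions, duplicate wells), by either fixed-cell In-Cell Western with DRAQ5 counterstain or AlphaLISA on lysates. Signal fitted against log concentration with a four-parameter model to give IC50.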

KRAS G13D = KRAS G13D (Homo sapiens (Human), UniProt P01116+P62937, G13D); test: Ras-Raf disruption/FRET/MOA assay, KRAS G13D; assay type: biochemical
KRAS G13D, sequence (P01116 other isoform, or with tags, fused parts or gaps G13D): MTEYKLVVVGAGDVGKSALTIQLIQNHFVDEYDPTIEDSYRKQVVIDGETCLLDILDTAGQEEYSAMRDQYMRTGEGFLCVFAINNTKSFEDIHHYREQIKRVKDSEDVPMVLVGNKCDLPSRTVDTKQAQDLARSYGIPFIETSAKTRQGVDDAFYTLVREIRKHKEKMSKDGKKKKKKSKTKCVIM
KRAS G13D, sequence (P62937 whole entry): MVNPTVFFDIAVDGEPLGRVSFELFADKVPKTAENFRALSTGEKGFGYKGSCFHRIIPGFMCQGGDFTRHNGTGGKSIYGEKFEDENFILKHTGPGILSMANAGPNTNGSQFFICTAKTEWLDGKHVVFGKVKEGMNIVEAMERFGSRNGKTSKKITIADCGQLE
Outline: (§1)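 His6-Ras-GMPPNP 12.5 nM + GST-BRAF^RBD 50 nM + CypA 25 μM; HEPES pH 7.3, 5 mM MgCl2, 0.1% BSA, 0.002% Tween20. Cpd 10-pt 3-fold from 30 μM final, 3 h 25° C. Eu/APC antibody detection 1.5 h; TR-FRET ratio drop vs DMSO → IC50.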

KRAS G12S = KRAS G12S (Homo sapiens (Human), UniProt P01116+P62937, G12S); test: Ras-Raf disruption/FRET/MOA assay, KRAS G12S; assay type: biochemical
KRAS G12S, sequence (P01116 other isoform, or with tags, fused parts or gaps G12S): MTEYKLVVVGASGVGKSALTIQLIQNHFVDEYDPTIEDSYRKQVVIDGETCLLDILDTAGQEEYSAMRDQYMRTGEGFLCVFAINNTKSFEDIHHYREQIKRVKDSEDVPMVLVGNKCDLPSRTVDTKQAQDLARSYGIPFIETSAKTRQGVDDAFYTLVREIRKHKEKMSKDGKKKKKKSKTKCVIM
KRAS G12S, sequence (P62937 whole entry): as the sequence (P62937 whole entry) above
Outline: as §1

KRAS G13C = KRAS G13C (Homo sapiens (Human), UniProt P01116+P62937, G13C); test: Ras-Raf disruption/FRET/MOA assay, KRAS G13C; assay type: biochemical
KRAS G13C, sequence (P01116 other isoform, or with tags, fused parts or gaps G13C): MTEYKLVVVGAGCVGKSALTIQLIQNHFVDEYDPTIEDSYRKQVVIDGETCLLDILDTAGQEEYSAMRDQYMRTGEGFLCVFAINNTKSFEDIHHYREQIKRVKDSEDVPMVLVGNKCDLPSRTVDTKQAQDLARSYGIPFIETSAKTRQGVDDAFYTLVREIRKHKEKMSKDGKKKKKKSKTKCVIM
KRAS G13C, sequence (P62937 whole entry): as the sequence (P62937 whole entry) above
Outline: as §1

KRAS G12V = KRAS G12V (Homo sapiens (Human), UniProt P01116+P62937, G12V); test: Ras-Raf disruption/FRET/MOA assay, KRAS G12V; assay type: biochemical
KRAS G12V, sequence (P01116 other isoform, or with tags, fused parts or gaps G12V): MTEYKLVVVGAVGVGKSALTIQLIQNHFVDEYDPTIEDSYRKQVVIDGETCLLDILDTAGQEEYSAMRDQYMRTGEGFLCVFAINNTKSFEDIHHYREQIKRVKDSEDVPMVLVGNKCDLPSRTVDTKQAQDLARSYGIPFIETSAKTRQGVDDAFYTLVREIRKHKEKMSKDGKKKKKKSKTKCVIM
KRAS G12V, sequence (P62937 whole entry): as the sequence (P62937 whole entry) above
Outline: as §1

KRAS G12D = KRAS G12D (Homo sapiens (Human), UniProt P01116+P62937, G12D); test: Ras-Raf disruption/FRET/MOA assay, KRAS G12D; assay type: biochemical
KRAS G12D, sequence (P01116 other isoform, or with tags, fused parts or gaps G12D): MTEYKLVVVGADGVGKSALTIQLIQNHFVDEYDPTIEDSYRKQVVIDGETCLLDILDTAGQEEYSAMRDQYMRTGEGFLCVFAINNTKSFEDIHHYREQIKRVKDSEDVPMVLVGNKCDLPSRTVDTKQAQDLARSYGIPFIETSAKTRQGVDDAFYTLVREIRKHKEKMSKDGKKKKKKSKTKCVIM
KRAS G12D, sequence (P62937 whole entry): as the sequence (P62937 whole entry) above
Outline: as §1

KRAS WT = KRAS WT (Homo sapiens (Human), UniProt P01116+P62937); test: Ras-Raf disruption/FRET/MOA assay, KRAS WT; assay type: biochemical
KRAS WT, sequence (P01116 other isoform, or with tags, fused parts or gaps): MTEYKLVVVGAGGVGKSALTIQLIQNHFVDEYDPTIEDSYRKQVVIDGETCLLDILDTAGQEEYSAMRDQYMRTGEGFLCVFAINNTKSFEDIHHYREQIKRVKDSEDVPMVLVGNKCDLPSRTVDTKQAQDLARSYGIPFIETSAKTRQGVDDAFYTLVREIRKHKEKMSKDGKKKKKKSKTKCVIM
KRAS WT, sequence (P62937 whole entry): as the sequence (P62937 whole entry) above
Outline: as §1

KRAS G12C = KRAS G12C (Homo sapiens (Human), UniProt P01116+P62937, G12C); test: Ras-Raf disruption/FRET/MOA assay, KRAS G12C; assay type: biochemical
KRAS G12C, sequence (P01116-2 other isoform, or with tags, fused parts or gaps G12C): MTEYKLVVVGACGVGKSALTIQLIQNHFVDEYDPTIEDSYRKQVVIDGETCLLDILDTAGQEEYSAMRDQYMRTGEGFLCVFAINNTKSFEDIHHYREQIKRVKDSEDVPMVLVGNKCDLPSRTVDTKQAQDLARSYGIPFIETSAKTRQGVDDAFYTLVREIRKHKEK
KRAS G12C, sequence (P62937 whole entry): as the sequence (P62937 whole entry) above
Outline: as §1

KRAS Q61H = KRAS Q61H (Homo sapiens (Human), UniProt P01116+P62937, Q61H); test: Ras-Raf disruption/FRET/MOA assay, KRAS Q61H; assay type: biochemical
KRAS Q61H, sequence (P01116 other isoform, or with tags, fused parts or gaps Q61H): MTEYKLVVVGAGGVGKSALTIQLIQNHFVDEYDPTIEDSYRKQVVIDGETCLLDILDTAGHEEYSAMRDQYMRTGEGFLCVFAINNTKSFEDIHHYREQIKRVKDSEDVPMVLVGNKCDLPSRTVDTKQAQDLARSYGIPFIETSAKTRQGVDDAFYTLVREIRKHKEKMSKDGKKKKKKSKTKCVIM
KRAS Q61H, sequence (P62937 whole entry, the tested form may be a part): as the sequence (P62937 whole entry) above
From the text: (§2) Disruption of B-Raf Ras-Binding Domain (BRAF^RBD) Interaction with K-Ras by Compounds of the Invention (Also Called a FRET Assay or an MOA Assay)
(§3) Note—The following protocol describes a procedure for monitoring disruption of K-Ras G12C (GMP-PNP) binding to BRAF^RBD by a compound of the invention. This protocol may also be executed substituting other Ras proteins or nucleotides, such as K-Ras G12D and K-Ras G13D.
(§4) The purpose of this biochemical assay was to measure the ability of test compounds to facilitate ternary complex formation between a nucleotide-loaded K-Ras isoform and Cyclophilin A; the resulting ternary complex disrupts binding to a BRAF^RBD construct, inhibiting K-Ras signaling through a RAF effector. Data is reported as IC50 values.
(§5) In assay buffer containing 25 mM HEPES pH 7.3, 0.002% Tween20, 0.1% BSA, 100 mM NaCl and 5 mM MgCl2, tagless Cyclophilin A, His6-K-Ras-GMPPNP, and GST-BRAF^RBD were combined in a 384-well assay plate at final concentrations of 25 μM, 12.5 nM, and 50 nM, respectively. Compound was present in plate wells as a 10-point 3-fold dilution series starting at a final concentration of 30 μM. After incubation at 25° C. for 3 hours, a mixture of anti-His Eu—W1024 and anti-GST allophycocyanin was then added to assay sample wells at final concentrations of 10 nM and 50 nM, respectively, and the reaction incubated for an additional 1.5 hours. […] Compounds that facilitate disruption of a K-Ras: RAF complex were identified as those eliciting a decrease in the TR-FRET ratio relative to DMSO control wells.

NRAS G12C = NRAS G12C (Homo sapiens (Human), UniProt P01111+P62937, G12C); test: Ras-Raf disruption/FRET/MOA assay, NRAS G12C; assay type: biochemical
NRAS G12C, sequence (P01111 whole entry G12C): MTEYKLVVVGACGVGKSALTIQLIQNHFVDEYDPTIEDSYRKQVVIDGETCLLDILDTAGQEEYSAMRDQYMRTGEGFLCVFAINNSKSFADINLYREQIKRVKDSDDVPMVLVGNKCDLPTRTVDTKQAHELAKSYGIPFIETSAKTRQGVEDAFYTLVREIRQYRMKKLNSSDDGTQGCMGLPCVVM
NRAS G12C, sequence (P62937 whole entry): as the sequence (P62937 whole entry) above
Outline: as §1

NRAS WT = NRAS WT (Homo sapiens (Human), UniProt P01111+P62937); test: Ras-Raf disruption/FRET/MOA assay, NRAS WT; assay type: biochemical
NRAS WT, sequence (P01111 whole entry): as the sequence (P01111 whole entry G12C) above, with C12G counted along it
NRAS WT, sequence (P62937 whole entry): as the sequence (P62937 whole entry) above
From the text: as §2, §3, §4, §5

NRAS Q61K = NRAS Q61K (Homo sapiens (Human), UniProt P01111+P62937, Q61K); test: Ras-Raf disruption/FRET/MOA assay, NRAS Q61K; assay type: biochemical
NRAS Q61K, sequence (P01111 whole entry Q61K): as the sequence (P01111 whole entry G12C) above, with C12G, Q61K counted along it
NRAS Q61K, sequence (P62937 whole entry): as the sequence (P62937 whole entry) above
From the text: as §2, §3, §4, §5

NRAS Q61R = NRAS Q61R (Homo sapiens (Human), UniProt P01111+P62937, Q61R); test: Ras-Raf disruption/FRET/MOA assay, NRAS Q61R; assay type: biochemical
NRAS Q61R, sequence (P01111 whole entry Q61R): as the sequence (P01111 whole entry G12C) above, with C12G, Q61R counted along it
NRAS Q61R, sequence (P62937 whole entry): as the sequence (P62937 whole entry) above
From the text: as §2, §3, §4, §5

Structure (SMILES) | EC50 (AsPC-1 (K-Ras G12D)) | IC50 (KRAS G13D) | IC50 (KRAS G12S) | IC50 (KRAS G13C) | IC50 (KRAS G12V) | IC50 (KRAS G12D) | IC50 (KRAS WT) | IC50 (KRAS G12C) | IC50 (KRAS Q61H) | IC50 (NRAS G12C) | IC50 (NRAS WT) | IC50 (NRAS Q61K) | IC50 (NRAS Q61R)
CCn1c(-c2cccnc2[C@H](C)OC)c2c3cc(ccc31)-c1cc(O)cc(c1)C[C@H](NC(=O)[C@H](C(C)C)N(C)C(=O)[C@@]1(C)CCCN1C(=O)[C@H]1CN1)C(=O)N1CCC[C@H](N1)C(=O)OCC(C)(C)C2 [Example 239] | < 5000 nM | 10 to 100 nM | 10 to 100 nM | 10 to 100 nM | 10 to 100 nM | 100 to 1000 nM | 10 to 100 nM | 10 to 100 nM | 10 to 100 nM | 10 to 100 nM | 10 to 100 nM | 100 to 1000 nM | 100 to 1000 nM
CCn1c(-c2cccnc2[C@H](C)OC)c2c3cc(ccc31)-c1cc(O)cc(c1)C[C@H](NC(=O)[C@@H](C(C)C)N(C)C(=O)[C@@]1(C)CCCN1C(=O)[C@H]1CN1)C(=O)N1CCC[C@H](N1)C(=O)OCC(C)(C)C2 [Example 240] | < 5000 nM | 1000 to 10000 nM | 1000 to 10000 nM | 1000 to 10000 nM | 1000 to 10000 nM | 1000 to 10000 nM | 100 to 1000 nM | 100 to 1000 nM | 100 to 1000 nM | 100 to 1000 nM | 1000 to 10000 nM | > 10000 nM | 1000 to 10000 nM
CCn1c(-c2cccnc2[C@H](C)OC)c2c3cc(ccc31)-c1cc(O)cc(c1)C[C@H](NC(=O)[C@H](C(C)C)N(C)C(=O)[C@@]1(C)CCCN1C(=O)[C@@H]1CN1)C(=O)N1CCC[C@H](N1)C(=O)OCC(C)(C)C2 [Example 241] | < 5000 nM | 10 to 100 nM | 10 to 100 nM | 10 to 100 nM | 10 to 100 nM | 10 to 100 nM | 10 to 100 nM | < 10 nM | 10 to 100 nM | < 10 nM | 10 to 100 nM | 100 to 1000 nM | 100 to 1000 nM
CCn1c(-c2cccnc2[C@H](C)OC)c2c3cc(ccc31)-c1cc(O)cc(c1)C[C@H](NC(=O)[C@@H](C(C)C)N(C)C(=O)[C@@]1(C)CCCN1C(=O)[C@@H]1CN1)C(=O)N1CCC[C@H](N1)C(=O)OCC(C)(C)C2 [Example 242] | < 5000 nM | 100 to 1000 nM | 100 to 1000 nM | 1000 to 10000 nM | 1000 to 10000 nM | 100 to 1000 nM | 100 to 1000 nM | 100 to 1000 nM | 100 to 1000 nM | 100 to 1000 nM | 100 to 1000 nM | 1000 to 10000 nM | 1000 to 10000 nM
CCn1c(-c2cccnc2[C@H](C)OC)c2c3cc(ccc31)-c1cc(O)cc(c1)C[C@H](NC(=O)[C@H](C(C)C)N(C)C(=O)[C@]1(C)CCCN1C(=O)[C@H]1CN1)C(=O)N1CCC[C@H](N1)C(=O)OCC(C)(C)C2 [Example 243] | < 5000 nM | 100 to 1000 nM | 100 to 1000 nM | 100 to 1000 nM | 100 to 1000 nM | 100 to 1000 nM | 100 to 1000 nM | 10 to 100 nM | 100 to 1000 nM | 10 to 100 nM | 100 to 1000 nM | 1000 to 10000 nM | 1000 to 10000 nM
